Reference: patent US10344019B2 (priority 2010, dated 2019)
Read-outs that look alike come from different tables or passages of the source.

Assays:
Type in all cases: cell-based
[1] = system: Q30R in genotype 1a NS5A, 1a Rluc replicon transfected into Huh-7 cured-51 cells; assay: HCV replicon assay, resistance mutant 1a Q30R; details: Hepatitis C virus, Huh-7, read-out: 1a Q30R
Method in brief: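 Cells were Huh-7 cured-51 transfected with replicon RNA of a genotype 1a H77 RLuc replicon carrying site-directed Q30R in NS5A.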

[2] = system: HCV 2b Rluc cells (NS5A chimeric genotype 2a JFH-1 replicon with genotype 2b MD2b-1 NS5A gene, M31 present); assay: microbe, parasite or virus in culture; details: Hepatitis C virus, read-out: 2b
Method in brief: (§1)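 Replicon cells stably carrying the listed RLuc-encoding dicistronic replicons were seeded and treated with DMSO serial dilutions of compound (10 mM stocks) diluted into culture medium. After 72 h, cells were lysed and Renilla luciferase activity measured. EC50 was derived by non-linear regression.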

[3] = system: HCV 3a RLuc cells (NS5A chimeric genotype 1b Con1 replicon with consensus genotype 3a NS5A gene); assay: microbe, parasite or virus in culture; details: Hepatitis C virus
Method in brief: as §1

[4] = system: HCV 1b RLuc cells (dicistronic genotype 1b Con1 replicon, RLuc reporter); assay: microbe, parasite or virus in culture; details: Hepatitis C virus, read-out: 1b (nM)
Method in brief: (§2)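 Renilla luciferase HCV replicon cells: dicistronic 1b Con1, 1a H77 or 2a JFH-1 replicons, or a JFH-1 chimera carrying J6 NS5A (M31 present). Compound in DMSO serial dilutions, 72 h incubation, then lysis and luciferase read. EC50 by non-linear regression.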

[5] = system: HCV 2a JFH-1 Rluc cells (dicistronic genotype 2a JFH-1 replicon, RLuc reporter); assay: microbe, parasite or virus in culture; details: Hepatitis C virus, read-out: 2a JFH
Method in brief: as §2

[6] = system: HCV 1a RLuc cells (dicistronic genotype 1a H77 replicon, RLuc reporter); assay: microbe, parasite or virus in culture; details: Hepatitis C virus, read-out: 1a
Method in brief: as §2

[7] = system: HCV 4a Rluc cells (NS5A chimeric genotype 1b Con1 replicon with genotype 4a NS5A gene); assay: microbe, parasite or virus in culture; details: Hepatitis C virus, read-out: 4a
Method in brief: as §1

[8] = system: HCV 2a Rluc cells (NS5A chimeric genotype 2a JFH-1 replicon with genotype 2a J6 strain NS5A gene, M31 present); assay: HCV replicon reporter assay, genotype 2a J6 (M31 present); details: Hepatitis C virus, read-out: 2a J6
Method in brief: as §2

[9] = read-out: 3a, genotype 3a NS5A chimeric replicon
[10] = genotype 2a JFH-1 RLuc replicon
[11] = read-out: 3a, genotype 3a replicon

Row | SMILES | EC50 [1] | EC50 [2] | EC50 [3, 9] | EC50 [4] | EC50 [5, 10] | EC50 ([6]; genotype 1a H77 RLuc replicon) | EC50 [7] | EC50 [8] | EC50 [3, 11] | EC50 ([5]; genotype 2a JFH-1 replicon) | EC50 ([6]; genotype 1a replicon)
1 | COC[C@H]1C[C@@H](c2nc3ccc4cc(-c5ccc6c(ccc7nc([C@@H]8CC[C@H](C)N8C(=O)[C@@H](NC(=O)OC)C(C)C)[nH]c76)c5)ccc4c3[nH]2)N(C(=O)[C@H](NC(=O)OC)c2ccccc2)C1 [Example 554] | 1 to 999 pM | 1 to 999 pM | 1 to 990 pM | 0.012 nM | 1 to 999 pM | 1 to 999 pM | 1 to 990 pM | 1 to 999 pM |  |  | 
2 | COC(=O)N[C@H](C(=O)N1CCC[C@H]1c1nc2ccc3cc(-c4ccc5c(ccc6nc([C@@H]7CC8(CN7C(=O)[C@H](NC(=O)OC)c7ccccc7)OCCO8)[nH]c65)c4)ccc3c2[nH]1)C(C)C [Example 317] | 1 to 999 pM | 1 to 999 pM |  | 0.023 nM |  |  | 1 to 990 pM | 1 to 999 pM | 1 to 990 pM | 1 to 999 pM | 1 to 999 pM
3 | CCO[C@H]1C[C@@H](c2nc3ccc4cc5c(cc4c3[nH]2)OCc2cc(-c3cnc([C@@H]4CCCN4C(=O)[C@@H](NC(=O)OC)C(C)C)[nH]3)ccc2-5)N(C(=O)[C@@H](NC(=O)OC)C(C)C)C1 [Example 551] | 1 to 999 pM | 1 to 999 pM | 1 to 990 pM | 0.018 nM | 1 to 999 pM | 1 to 999 pM | 1 to 990 pM | 1 to 999 pM |  |  | 
4 | COC[C@H]1C[C@@H](c2nc3ccc4cc(-c5ccc6c(ccc7nc([C@@H]8C[C@H](C)CN8C(=O)[C@@H](NC(=O)OC)C(C)C)[nH]c76)c5)ccc4c3[nH]2)N(C(=O)[C@@H](NC(=O)OC)[C@@H](C)OC)C1 [Example 559] | 1 to 999 pM | 1 to 999 pM | 1 to 990 pM | 0.08 nM | 1 to 999 pM | 1 to 999 pM | 1 to 990 pM | 1 to 999 pM |  |  | 
5 | COC(=O)N[C@H](C(=O)N1[C@H](c2nc3ccc4cc5c(cc4c3[nH]2)OCc2cc(-c3cnc(C4CCCN4C(=O)[C@@H](NC(=O)OC)C4CCOCC4)[nH]3)ccc2-5)C[C@@H]2CCC[C@@H]21)C(C)C (some centres unmarked) [Example 575] | 1 to 999 pM | 1 to 999 pM | 1 to 990 pM | 0.029 nM | 1 to 999 pM | 1 to 999 pM | 1 to 990 pM | 1 to 999 pM |  |  | 
6 | COC[C@@H]1C[C@@H](c2nc3ccc4cc(-c5ccc6c(ccc7nc([C@@H]8CCCN8C(=O)[C@@H](NC(=O)OC)C(C)C)[nH]c76)c5)ccc4c3[nH]2)N(C(=O)[C@@H](NC(=O)OC)C(C)C)C1 [Example 397] | 1 to 999 pM | 1 to 999 pM |  | 0.017 nM |  |  | 1 to 990 pM | 1 to 999 pM | 1 to 990 pM | 1 to 999 pM | 1 to 999 pM
7 | COC[C@H]1C[C@@H](c2nc3ccc4cc5c(cc4c3[nH]2)OCc2cc(-c3cnc([C@@H]4C[C@H]6C[C@H]6N4C(=O)[C@@H](NC(=O)OC)C(C)C)[nH]3)ccc2-5)N(C(=O)[C@H](NC(=O)OC)c2ccccc2)C1 [Example 539] | 1 to 999 pM | 1 to 999 pM | 1 to 990 pM | 0.016 nM | 1 to 999 pM | 1 to 999 pM | 1 to 990 pM | 1 to 999 pM |  |  | 
8 | COC(=O)N[C@H](C(=O)N1CCC[C@H]1c1ncc(-c2ccc(-c3ccc4c(ccc5nc([C@@H]6CCCN6C(=O)[C@@H](NC(=O)OC)C(C)C)[nH]c54)c3)c(C#Cc3ccccc3)c2)[nH]1)C(C)C [Example 438] | 1000 to 44000 pM | > 44000 pM |  | 0.003 nM |  |  | 1 to 990 pM | > 44000 pM | 1 to 990 pM | 1 to 999 pM | 1 to 999 pM
9 | COC[C@H]1C[C@@H](c2ncc(-c3ccc(-c4ccc5c(ccc6nc([C@@H]7CCCN7C(=O)[C@@H](NC(=O)OC)C(C)C)[nH]c65)c4)cc3)[nH]2)N(C(=O)[C@H](NC(=O)OC)c2ccccc2)C1 [Example 446] | 1 to 999 pM | 1 to 999 pM |  | 0.03 nM |  |  | 1 to 990 pM | 1 to 999 pM | 1 to 990 pM | 1 to 999 pM | 1 to 999 pM
10 | COC[C@H]1C[C@@H](c2nc3ccc4cc5c(cc4c3[nH]2)OCc2cc(-c3cnc([C@@H]4CCCN4C(=O)[C@@H](NC(=O)OC)C(C)C)[nH]3)ccc2-5)N(C(=O)[C@@H](NC(=O)OC)C(C)C)C1 [Example 495] | 1 to 999 pM | 1 to 999 pM | 1 to 990 pM | 0.026 nM | 1 to 999 pM | 1 to 999 pM | 1 to 990 pM | 1 to 999 pM |  |  | 
